The experiment has as its system elevated heart rate. As to the kind of experiment: In vivo dog experiments: heart rate offset after iontophoretic ESA drug with pretreatment (Example A). The settings on record: for Offset Slope Component (0-5) min: 0-5 min after heart rate begins to decline; for Offset Slope Component (5-10) min: 5-10 min after decline begins; for Offset Slope Component (10-30) min: 10-30 min after decline begins; for Change in Heart Rate (peak minus baseline) / Peak Heart Rate: Table II; for Total time (startup) thru offset plateau: in words / Total time (startup) thru offset plateau: w/in 20 bpm of baseline / t 1/2 of elevated heart rate decay / Total time (startup) thru offset plateau: w/in 10 bpm of baseline: Table IV; for Onset Slope: baseline at onset time to peak heart rate; for Offset time: drug delivery stopped until within 20 bpm of baseline; for Offset Slope: drug shut-off to 20 bpm above baseline; for Delay: drug shut-off to start of heart rate decline; for t 1/2 of elevated heart rate decay: exponential fit; for Reduction in offset time: iontophoretic pre-delivery; for Onset time: start of delivery to start of increase in heart rate; for Time Start Decline: time when elevated heart rate began to decline. More on the design: species or system labrador dogs.

“Also recorded” adds a separate entry of the source.

`CC[C@@H]1C(=O)OC[C@@H]1Cc1cncn1C` [Pilocarpine]: the “Total time (startup) thru offset plateau: in words” value (“Total time … in words” below) is listed as “Never reached w/in 20 bpm of baseline”, the “Total time (startup) thru offset plateau: w/in 20 bpm of baseline” value is 60 min and the “Reduction in offset time” value is on record as “also reduce offset time”. Further, under “listed as 7”, the “Offset Slope Component (0-5) min” value is -1.70 beats per minute per minute, the “Offset Slope Component (5-10) min” value is on record as -2.50 beats per minute per minute, the “Offset Slope Component (10-30) min” value is given as -1.10 beats per minute per minute and the “Change in Heart Rate (peak minus baseline)” value is 73 bpm. Also, where the note is “listed as 7”, the “Peak Heart Rate” value turned out to be 133 bpm, the “Onset Slope” value is listed as 11.60 beats per minute per minute, the Offset time came to 38.00 min and the “Offset Slope” value is reported as -1.10 beats per minute per minute. Also, where the note is “listed as 7”, the Delay was determined as 1.30 min, the “t 1/2 of elevated heart rate decay” value was determined as 28.85 min, the Onset time was found to be 6.70 min and the “Time Start Decline” value came out at 23.80 min. For the same compound, where the note is “listed as 8”, the “Offset Slope Component (0-5) min” value is given as -7.60 beats per minute per minute, the “Offset Slope Component (5-10) min” value was -1.40 beats per minute per minute, the “Offset Slope Component (10-30) min” value is listed as -1.00 beats per minute per minute and the “Change in Heart Rate (peak minus baseline)” value came to 114 bpm. For the setting “listed as 8”, the “Peak Heart Rate” value worked out at 191 bpm, the “Onset Slope” value is 11.20 beats per minute per minute, the Offset time amounted to 36.00 min and the “Offset Slope” value is reported as -1.70 beats per minute per minute. Moreover, where the note is “listed as 8”, the Delay came out at 5.30 min, the “t 1/2 of elevated heart rate decay” value was found to be 21.36 min, the Onset time came to 13.00 min and the “Time Start Decline” value was found to be 24.30 min. For the setting “5-10 minute interval, FIG. 1”, the “Percent decline in heart rate, ranking” value is recorded as “next highest percent declines”. In addition, the “Delay to onset of heart rate decline, ranking” value (FIG. 2) is recorded as “shortest delay”.
As for `Cc1ccc(N(CC2=NCCN2)c2cccc(O)c2)cc1` [Phentolamine], the “Reduction in offset time” value is listed as “found effective when pre-delivered iontophoretically”.
Regarding `COC(=O)c1cccnc1` [Methyl Nicotinate, methyl ester of nicotinic acid], the “Total time (startup) thru offset plateau: w/in 20 bpm of baseline” value came out at 55 min, the “t 1/2 of elevated heart rate decay” value is 21.36 min and the “Reduction in offset time” value is on record as “also reduce offset time”. For the setting “listed as 9”, the “Offset Slope Component (0-5) min” value is given as -2.40 beats per minute per minute, the “Offset Slope Component (5-10) min” value is on record as -0.40 beats per minute per minute, the “Offset Slope Component (10-30) min” value is reported as -0.28 beats per minute per minute and the “Change in Heart Rate (peak minus baseline)” value was 55 bpm. For the setting “listed as 9”, the “Peak Heart Rate” value amounted to 117 bpm, the “Total time … in words” value was “Never Reached w/in 20 bpm of baseline”, the “Onset Slope” value was 4.20 beats per minute per minute and the Offset time was 29.00 min. In addition, where the note is “listed as 9”, the “Offset Slope” value is on record as -0.40 beats per minute per minute, the Delay worked out at 6.50 min, the Onset time was 15.00 min and the “Time Start Decline” value is 25.00 min. Also, where the note is “listed as 10”, the “Offset Slope Component (0-5) min” value is listed as -1.40 beats per minute per minute, the “Offset Slope Component (5-10) min” value was -2.40 beats per minute per minute, the “Offset Slope Component (10-30) min” value is on record as -1.90 beats per minute per minute and the “Change in Heart Rate (peak minus baseline)” value was found to be 81 bpm. In addition, for the setting “listed as 10”, the “Peak Heart Rate” value amounted to 152 bpm, the “Total time … in words” value is “never lower”, the “Onset Slope” value was 12.30 beats per minute per minute and the Offset time is 31.00 min. Under “listed as 10”, the “Offset Slope” value is -1.70 beats per minute per minute, the Delay was 2.50 min, the Onset time is 7.00 min and the “Time Start Decline” value was 20.50 min.
For `CC(COc1ccccc1)N(CCCl)Cc1ccccc1` (stereo not drawn) [Phenoxybenzamine], the “Reduction in offset time” value was “found effective when pre-delivered iontophoretically; also recorded: also reduce offset time”. Besides, for the setting “listed as 18”, the “Offset Slope Component (0-5) min” value was -4.20 beats per minute per minute, the “Offset Slope Component (5-10) min” value is 0.02 beats per minute per minute, the “Offset Slope Component (10-30) min” value is -0.53 beats per minute per minute and the “Change in Heart Rate (peak minus baseline)” value came to 57 bpm. Under “listed as 18”, the “Peak Heart Rate” value is listed as 117 bpm, the “Total time (startup) thru offset plateau: w/in 10 bpm of baseline” value came to 60 min, the “Onset Slope” value is reported as 3.70 beats per minute per minute and the Offset time was 30.00 min. Moreover, where the note is “listed as 18”, the “Offset Slope” value is -0.80 beats per minute per minute, the Delay was found to be 10.00 min, the “t 1/2 of elevated heart rate decay” value is 16.96 min and the Onset time is 18.00 min. The “Time Start Decline” value (listed as 18) is 28.00 min. In addition, where the note is “listed as 19”, the “Offset Slope Component (0-5) min” value was -4.90 beats per minute per minute, the “Offset Slope Component (5-10) min” value was -2.00 beats per minute per minute, the “Offset Slope Component (10-30) min” value was -1.80 beats per minute per minute and the “Change in Heart Rate (peak minus baseline)” value turned out to be 79 bpm. Besides, for the setting “listed as 19”, the “Peak Heart Rate” value is recorded as 149 bpm, the “Total time (startup) thru offset plateau: w/in 10 bpm of baseline” value stood at 48 min, the “Onset Slope” value is reported as 13.90 beats per minute per minute and the Offset time stood at 25.80 min. Further, for the setting “listed as 19”, the “Offset Slope” value is -2.30 beats per minute per minute, the Delay was 3.50 min, the “t 1/2 of elevated heart rate decay” value turned out to be 11.52 min and the Onset time stood at 7.40 min. Besides, the “Time Start Decline” value (listed as 19) came out at 22.00 min.
